Data as given in publication PMC7155171, “Probing the Open Global Health Chemical Diversity Library for Multistage-Active Starting Points for Next-Generation Antimalarials” (ACS Infectious Diseases, 2020).
Where two headings read alike, the source gives them in different places.

Tests used:
[1] = test system: P. falciparum Dd2 (PfLuc) line expressing firefly luciferase, asexual blood stage; assay: microbe, parasite or virus in culture; parameters: species or system P. falciparum Dd2-luciferase in human red blood cells; PfLuc Dd2 asexual blood stage luciferase viability, BrightGlo luminescence, 96 h; details: Plasmodium falciparum, DD2, Erythrocyte
Procedure: (§1) A transgenic line of Plasmodium falciparum (Dd2) constitutively expressing firefly luciferase was used for primary and reconfirmation screening. Cultures were maintained in complete media at 5% hematocrit (Human Whole Blood O+) and incubated at 37 °C in a low oxygen environment (3% O2, 5% CO2, and 92% N2). Culture health and parasitemia were tracked by Giemsa staining and bright field microscopy. Prior to dispensing parasites for primary screening, 20 nL of test compounds and 10 nL of control compounds (artemisinin and DMSO) were seeded per well using an Echo 550 acoustic dispenser (Labcyte) for final assay concentrations of 5 and 10 μM, respectively. When parasite cultures reached 3% to 8% parasitemia, as determined by a blood smear, infected blood was centrifuged at 800g for 5 min. […] From this blood mixture, 8 μL was dispensed per well in 1536-well, white, solid-bottom plates (789173-F, Greiner) using a MultiFlo FX Multi-Mode dispenser (BioTek). Plates were covered with a porous metal lid and incubated at 37 °C inside large plastic Ziploc bags filled with a blood gas mixture (3% O2, 5% CO2, and 92% N2) for 96 h. To prevent evaporation, a clean tray of water was included within each bag. Following incubation, BrightGlo was prepared by manufacturer specifications and dispensed at 2 μL per well using the MultiFlo dispenser. Plates were left for 20 min before being read with the ViewLux uHTS microplate imager (PerkinElmer) with a 90 s exposure time at the High Sensitivity Luminescence setting. Raw data were processed using GeneData (v12.0.5), whereby activity was normalized to negative minus positive controls. The correction of Runwise Pattern (Multiplicative) was applied, and compounds were considered hits when activity was reduced by ≥70%. […] Also, plates tested in 11-point dose response format were incubated at both 48 a The primary assay was run at a compound concentration of 5 μM. Briefly, 8 μL of an ABS parasite mixture (∼10,000 parasites) was dispensed into 1536-well plates previously spotted with 64,811 GHCDL compounds (the remaining 3642 library compounds arrived later and were evaluated separately). After a 96 h incubation, 2 μL of luciferin (BrightGlo) was added, and the luminescent signal was measured. Bioluminescence was normalized to DMSO (negative control) and artemisinin-treated (positive control) wells for the single point screens. For this primary screen, assay fidelity was determined on a per plate basis using both the Z′-factor and the potency variance of the positive (artemisinin) and negative (DMSO) controls. The mean Z′ value was 0.60 (range of 0.43–0.75), with only one plate falling below our ideal 0.5 threshold (Figure S1).

[2] = test system: P. falciparum Dd2 (PfLuc) line expressing firefly luciferase, asexual blood stage; assay: microbe, parasite or virus in culture; parameters: species or system P. falciparum Dd2-luciferase in human red blood cells; PfLuc Dd2 asexual blood stage luciferase viability, BrightGlo luminescence, 48 h; details: Plasmodium falciparum, DD2, Erythrocyte, read-out: CDD P. falciparum Luciferase 11pt dose response (48hr, n=2): IC50 (μM), 11-point
Procedure: as §1, with “From these (Sets 1 and 2),” for “The primary assay was run at a compound concentration of 5 μM. Briefly, 8 μL of an ABS parasite mixture (∼10,000 parasites) was dispensed into 1536-well plates previously spotted with 64,811 GHCDL”, “were resupplied as fresh powders” for “(the remaining 3642 library compounds arrived later”, “and” for “and were”, “in 11-point dose response tests (Pfluc; n = 2)” for “separately). After a 96 h incubation, 2 μL of luciferin (BrightGlo) was added, and the luminescent signal was measured. Bioluminescence was normalized to DMSO (negative control) and artemisinin-treated (positive control) wells”, “two time points.” for “single point screens. For this primary screen, assay fidelity was determined on a per plate basis using both the Z′-factor and the potency variance of the positive (artemisinin) and negative (DMSO) controls. The mean Z′ value was 0.60 (range of 0.43–0.75), with only one plate falling below our ideal 0.5 threshold (Figure S1).”

P. falciparum Dd2 [3] = assay: microbe, parasite or virus in culture; parameters: species or system P. falciparum Dd2 in human red blood cells; SYBR Green I asexual blood stage proliferation (DNA) assay, P. falciparum Dd2, 96 h; details: Plasmodium falciparum, DD2, Erythrocyte, 96 h, read-out: CDD P. falciparum Sybr Green I ABS Dd2 Dose Response: IC50 (uM)
[4] = test system: P. falciparum (NF54) stage V gametocytes; assay: Stage V gametocyte viability assay (MitoTracker Red CMXRos high content imaging); type: cell-based, Plasmodium falciparum; details: Plasmodium falciparum, NF54, 72 h
[5] = test system: P. falciparum Dd2 (PfLuc) line expressing firefly luciferase, asexual blood stage; assay: microbe, parasite or virus in culture; type: cell-based, Plasmodium falciparum; details: Plasmodium falciparum
P. falciparum Dd2 [6] = assay: SYBR green I asexual blood stage proliferation assay (96 h); type: cell-based, Plasmodium falciparum; details: Plasmodium falciparum, DD2, Sybr Green I, 11-pt dose response, 96hr
[7] = test system: P. berghei liver stage (PbLuc); assay: P. berghei luciferase liver stage (PbLuc) assay in HepG2-A16-CD81 hepatocytes; type: cell-based, Plasmodium berghei; details: Plasmodium berghei
[8] = target: recombinant firefly luciferase (Photinus pyralis, UniProt P08659); assay: biochemical
Chain of recombinant firefly luciferase (P08659 whole entry): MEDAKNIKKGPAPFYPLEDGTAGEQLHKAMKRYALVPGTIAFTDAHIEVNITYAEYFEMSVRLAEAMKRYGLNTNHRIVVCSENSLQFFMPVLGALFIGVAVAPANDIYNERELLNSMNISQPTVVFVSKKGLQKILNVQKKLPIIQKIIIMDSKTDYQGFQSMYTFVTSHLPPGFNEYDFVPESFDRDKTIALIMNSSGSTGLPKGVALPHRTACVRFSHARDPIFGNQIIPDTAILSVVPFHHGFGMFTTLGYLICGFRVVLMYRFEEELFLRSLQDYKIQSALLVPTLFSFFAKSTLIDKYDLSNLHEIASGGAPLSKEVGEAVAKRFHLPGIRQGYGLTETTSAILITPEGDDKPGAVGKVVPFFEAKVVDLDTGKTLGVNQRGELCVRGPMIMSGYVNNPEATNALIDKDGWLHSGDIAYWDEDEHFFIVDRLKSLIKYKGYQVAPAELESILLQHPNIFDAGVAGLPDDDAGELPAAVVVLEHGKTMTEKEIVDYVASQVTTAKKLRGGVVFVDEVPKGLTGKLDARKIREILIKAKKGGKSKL

[9] = test system: HepG2-A16-CD81 hepatocytes; assay: cells; parameters: Uninfected hepatocyte viability, CellTiter-Glo luminescence; details: sheet CDD Export 1;, cytotoxicity primary screen, read-out: Table S5. Liver stage reconfirmation data / HepG2 Cytotoxicity primary screen (2uM): % Inhibition
Procedure: For the screen, 5 μL of HepG2-A16-CD81 hepatocytes containing 3 × 10^3 cells was seeded into 1536-well plates, which had been prespotted with 10 nL of library compound (2 μM final assay concentration (Figure 1)) and incubated overnight. For PbLuc infected plates, approximately 750 purified sporozoites in 5 μL of screening media were added to each well and incubated for 48 h before measuring luciferase activity. Compounds were tested for toxicity in parallel (see Methods) by measuring uninfected hepatocyte viability using CellTiter-Glo. […] This hit rate was slightly lower than expected for an agnostic library, which prompted us to rescreen the entire library at 10 μM. The PbLuc and cytotoxicity assay plates for this second replicate would be stamped in-house with 50 nL of library compound per well, using the same compound plates as the sexual stage screen described below. All the assay parameters were kept similar, except the change in concentration and shortening the time the compounds spent in each well prior to infection. […] All potential false positive effectors from the CellTiter-Glo assay were filtered from subsequent studies (Table S1). Naturally, there were more primary hits from the 10 μM than the 2 μM screen due to the higher testing concentration. For reconfirmation, we sourced all the hits that inhibited PbLuc at >70% and mean HepG2 at <50% in the 2 μM screen or PbLuc at >60% in both 2 and 10 μM screens and mean HepG2 at <50%. The resulting compounds were acquired as DMSO stocks and retested in the dose response (50–2.82 × 10^–4 μM or 25–141.13 × 10^–6 μM) against PbLuc and uninfected hepatocytes (Table S5). […] The majority of these compounds were weak inhibitors, although 18 submicromolar hits were found (Table S5).

[10] = test system: HepG2-A16-CD81 hepatocytes; assay: HepG2 cytotoxicity screening (CellTiter-Glo)
in vitro = details: human
[11] = read-out: CDD P. falciparum Luc 11pt dose response (96hr, n=2): IC50 (μM), 11-point

Row | SMILES | IC50 [1, 11] | IC50 [2] | IC50 (P. falciparum Dd2 [3]) | other results
1 | CN(C)CCCNCCC(c1ccccc1)C1CCOC(C)(C)C1 (centres unmarked) [DDD01026663] | 0.627 µM | 2.82 µM | > 1.39 µM | 
2 | CC(C)C[C@H](N)C(=O)N1CC2(CCNCC2)c2cc(Cl)ccc21 [DDD01029528, CC(C)C[C@H](N)C(=O)N1CC2(CCNCC2)C2=CC(Cl)=CC=C12] | 0.553 µM | 1.79 µM | 1.52 µM | IC50 ([4]; read-out: Stg V Gam dose response IC50 (µM) (n=3), 10-point dose response, n=3, 72 h): 3.02 µM; inhibition at 2 µM ([4]; read-out: Stg V Gam primary screen: Inhibition % (2uM) (n=2)): 49.8%
3 | Cc1ccc(-c2ccccc2CC2(C(=O)NC(C)C)CCCNC2)cc1 (centres unmarked) [DDD01056815] | 0.863 µM | > 4.16 µM | > 4.16 µM | 
4 | CN(C)CCNC(=O)c1sc2ccccc2c1C1CCC(CN)CC1 (centres unmarked) [DDD01058779] | 2.3 µM | 1.31 µM | 1.65 µM | 
5 | CCOC(=O)C1(Cc2ccccc2-c2ccccc2OC)CCNCC1 [DDD01059034] | 0.861 µM | 5.11 µM | > 4.16 µM | 
6 | c1cc(-c2n[nH]cc2-c2ccnc(N3CCCC3)n2)ccn1 [DDD01235828] |  |  |  | IC50 ([5]; DD2, read-out: CDD P. falciparum Luciferase ABS 11-pt Reconfirmation Dose Response (48hr): IC50 (μM), 11-pt dose response, 48hr): > 4.16 µM; Emax ([5]; DD2, 8-pt dose response, 96hr, read-out: CDD P. falciparum Luciferase ABS 8-pt Reconfirmation Dose Response (96hr): Maximum inhibition (%)): 91%; Emax ([5]; DD2, 11-pt dose response, 48hr, read-out: CDD P. falciparum Luciferase ABS 11-pt Reconfirmation Dose Response (48hr): Maximum inhibition (%)): 53.9%; IC50 ([5]; DD2, 11-pt dose response, 96hr, read-out: CDD P. falciparum Luciferase ABS 11-pt Reconfirmation Dose Response (96hr): IC50): 0.167 µM; Emax ([5]; DD2, 11-pt dose response, 96hr, read-out: CDD P. falciparum Luciferase ABS 11-pt Reconfirmation Dose Response (96hr): Maximum inhibition (%)): 92%; IC50 ([5]; 96 h incubation, Dd2 luciferase, read-out: 96 hour Pfluc IC50): 0.17 µM; IC50 (P. falciparum Dd2 [6]; read-out: CDD P. falciparum Sybr Green I ABS 11-pt Reconfirmation Dose Response (96hr): IC50): 37 nM; Emax (P. falciparum Dd2 [6]; read-out: CDD P. falciparum Sybr Green I ABS 11-pt Reconfirmation Dose Response (96hr): Maximum inhibition (%)): 79.4%; IC50 ([1]; 8-point, 96 h, DMSO stocks, read-out: CDD P. falciparum Luciferase ABS 8-pt Reconfirmation Dose Response (96hr): IC50): 0.0618 µM
7 | CNc1nc(C)c(-c2nc(-c3c(C)ncc4c3CCNC4)no2)s1 [DDD01244276] | 0.337 µM | 0.956 µM | 1.65 µM | 
8 | Cc1cc(N2CCC(NC(C)Cc3ccsc3)CC2)nc(N)n1 (centres unmarked) [DDD01252553] | 0.246 µM | 1.11 µM | 1.01 µM | 
9 | c1ccc(-c2ccc(C3CNCCO3)nc2)cc1 (centres unmarked) [DDD01270216] | 1.44 µM | 1.77 µM | > 12.5 µM | IC50 ([7]; HepG2-A16-CD81, 48 h, 48 h liver stage, HepG2-A16-CD81, read-out: Pbluc (EEF) IC50): < 0.141 nM; IC50 ([8]; read-out: rLuc IC50): 220 nM; inhibition at 2 µM [9]: 6.27%; IC50 ([10]; HepG2-A16-CD81, read-out: HepG2 tox IC50): > 25000 nM
10 | c1ccc(CCCN2CCN(c3ccc4nncn4n3)CC2)cc1 [DDD01295523] | 0.912 µM | 3.86 µM |  | 
11 | COc1cc(C(=O)NCc2ccc3c(c2)CCCN3C)cc(OC)c1Br [DDD01300030] | 2.46 µM | 5.74 µM | > 12.5 µM | 
12 | COc1ccc(CNCC2CCN(CC(C)O)CC2)c2ccccc12 (centres unmarked) [DDD01302860] | 0.621 µM | 1.27 µM | 0.743 µM | 
13 | CCS(=O)(=O)N1[CH]Cc2ccc(NC(=O)Nc3cccc(C#N)c3)cc21 [UCSD-0785775] |  |  |  | Emax ([7]; HepG2-A16-CD81, 48 h, 12pt dose response, maximum inhibition): 91.5%; inhibition at 2 µM ([7]; HepG2-A16-CD81, primary screen, 2 uM): -22.1%; inhibition at 10 µM ([7]; HepG2-A16-CD81, primary screen, 10 uM): 86.7%; IC50 ([7]; HepG2-A16-CD81, read-out: PbLuc 12pt dose response: IC50): 1360 nM; Emax ([8]; dose response, maximum inhibition, read-out: rLuc inhibition dose response: Maximum inhibition (%)): 6.44%; IC50 ([8]; dose response, read-out: rLuc inhibition dose response: IC50): > 25000 nM; IC50 (in vitro): > 25000 nM; inhibition at 2 µM (in vitro): -2.63%; inhibition at 10 µM (in vitro): 39.2%; HepG2 cytotoxicity 12pt dose response: Maximum inhibition (%) ([10]; 12pt dose response, maximum inhibition): 52.4%
14 | O=C1[C@@H]2CC[C@@H](CN(c3ncnc4ccsc34)C2)N1CC1CC1 [UCSD-0827296] |  |  |  | inhibition at 2 µM (in vitro): -8.03%
15 | O=C1NCCN1C1CCCN(Cc2coc(-c3ccc(F)cc3)n2)C1 (centres unmarked) [UCSD-0845351] |  |  |  | inhibition at 2 µM (in vitro): 0.09%
